Laboratory results as given in patent US9447047B2 (priority 2012, dated 2016).
“Also recorded” adds a separate entry of the source. Where two headings read alike, the source gives them in different places.

Legend:
EBOV VP30 = assay type: cell-based
[1] = system: HIV-1 transcription in CEM-GFP cells; test: Tat-dependent HIV-1 transcription LTR-GFP reporter assay in CEM-GFP cells infected with Ad-Tat; assay type: cell-based
CEM cells [2] = test: cells; conditions: Homo sapiens, CCRF-CEM
[3] = system: Tat-induced HIV transcription in 293T cells; test: Tat-induced HIV transcription in 293T cells transfected with HIV-1 LTR reporter and Tat vectors; assay type: cell-based
HIV-1 = test: Inhibition of HIV-1 replication; assay type: cell-based
[4] = system: Tat-driven nuclear localization of PP1α; assay type: cell-based
EBOV-eGFP = assay type: cell-based
EBOV transcription = assay type: cell-based
[5] = Control cell viability assays (FIG. 18)
PP1α = PP1α (Homo sapiens, UniProt P62136); test: Dephosphorylation of generic KT(pT)IRR peptide by recombinant PP1α (malachite green); assay type: biochemical
[6] = system: interaction of Tat with PP1α; assay type: cell-based; conditions: 10 μM, 293T cells
[7] = molecular target: PP1 association with NIPP1, PNUTS and Tat (Homo sapiens, UniProt P62136); assay type: cell-based
CEM cells [8] = system: CEM cells
293T cells = test: Global cellular proteome of 293T cells by LC-MS-MS; conditions: 10 μM for 18 h
[9] = Human immunodeficiency virus 1, CEM-GFP, 48 h, read-out: Inhibition of HIV-1 Transcription in CEM-GFP cells (IC50, μM)
[10] = read-out: Toxicity in CEM cells, (IC50, μM)
[11] = Human immunodeficiency virus 1; read-out: 50% Inhibition of HIV-1 replication
[12] = read-out: Toxicity in CEM cells, IC50

Chain of PP1α (P62136 whole entry): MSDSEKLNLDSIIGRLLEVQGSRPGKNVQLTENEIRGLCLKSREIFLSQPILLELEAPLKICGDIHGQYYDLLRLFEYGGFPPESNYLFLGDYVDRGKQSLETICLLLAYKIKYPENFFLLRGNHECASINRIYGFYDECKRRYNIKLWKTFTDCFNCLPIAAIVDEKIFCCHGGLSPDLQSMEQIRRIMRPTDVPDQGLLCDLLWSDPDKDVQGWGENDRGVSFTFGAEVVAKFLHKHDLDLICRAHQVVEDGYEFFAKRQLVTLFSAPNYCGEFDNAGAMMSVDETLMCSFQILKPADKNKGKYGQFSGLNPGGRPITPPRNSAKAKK
Chain of PP1 association with NIPP1, PNUTS and Tat (P62136 2-330 limits assumed): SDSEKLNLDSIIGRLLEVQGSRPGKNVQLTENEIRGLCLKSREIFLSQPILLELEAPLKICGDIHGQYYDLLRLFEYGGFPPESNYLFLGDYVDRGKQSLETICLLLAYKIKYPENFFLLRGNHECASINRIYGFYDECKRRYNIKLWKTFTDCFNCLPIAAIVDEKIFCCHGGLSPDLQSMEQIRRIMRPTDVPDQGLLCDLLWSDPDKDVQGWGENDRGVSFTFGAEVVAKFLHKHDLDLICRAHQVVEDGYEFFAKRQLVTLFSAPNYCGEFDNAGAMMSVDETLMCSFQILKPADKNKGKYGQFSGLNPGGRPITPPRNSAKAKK

In the case of C=C1[C@@H](O)[C@@H]2O[C@]3(CC[C@H](/C=C/[C@@H](C)[C@@H]4CC(C)=C[C@@]5(O[C@H](C[C@@](C)(O)C(=O)O)CC[C@H]5O)O4)O3)CC[C@H]2O[C@@H]1[C@@H](O)C[C@H](C)[C@H]1O[C@@]2(CCCCO2)CC[C@H]1C [okadaic acid, reference compound], the “VP30 phosphorylation” value (EBOV VP30) is reported as “increased”.
Compound O=S(=O)(Nc1ccc(S(=O)(=O)N2CCC(Cc3ccccc3)CC2)cn1)c1ccccc1 [T5481237] has an IC50 [1, 9] of 15 µM and an IC50 (CEM cells [2]; [10]) of 20 µM.
With O=C(CNC(=O)c1ccccc1SCC(=O)NC12CC3CC(CC(C3)C1)C2)Nc1ccc(Cl)cc1 [T5498680] the IC50 [1, 9] was 5 µM and the IC50 (CEM cells [2]; [10]) was 5 µM.
In the case of CCNC(=O)NC(=O)C(C)OC(=O)c1c2c(nc3ccccc13)/C(=C/c1ccc(OC)c(OC)c1)CC2 (stereo not drawn) [1E7-03], the “potency in HIV-1 transcription inhibition in 293T cells (comparison)” value [3] is reported as “equally potent as 1E7”, the “HIV-1 inhibition” value (HIV-1; FIG. 18) is reported as “potent HIV-1 inhibitor” and the IC50 (HIV-1; [11]) is reported as 3 µM. For the same compound, the “translocation of Tat and PP1 into the nucleus” value ([4]; fluorescence in nucleus and cytoplasm fractions) was “inhibited”, the “inhibition of EBOV replication” value (EBOV-eGFP) was “completely suppressed” and the “VP30 phosphorylation” value (EBOV VP30) was “increased”. The “increase of VP30 phosphorylation” value (EBOV VP30) was 2.7 fold, the “EBOV transcription” value (EBOV transcription) was “inhibits EBOV transcription” and the “toxicity” value (Vero-E6 cells) was “without any detectable cytotoxicity”. The IC50 (CEM cells [2]; [12]) was over 20 µM and the “cell viability” value [5] was “maintains the most viability”.
CN(C1CCCCC1)S(=O)(=O)c1ccc(NC(=O)COc2ccccc2-c2ccccc2)cc1 [T5551920] gave an IC50 [1, 9] of 15 µM and an IC50 (CEM cells [2]; [10]) of 15 µM.
Compound CC(OC(=O)c1ccccc1SCC(=O)Nc1ccc2c(c1)OCO2)C(=O)NCCC1=CCCCC1 (stereo not drawn) [T5369370] has an IC50 [1, 9] of 10 µM and an IC50 (CEM cells [2]; [10]) of 15 µM.
COCCNC(=O)OC(=O)c1c2c(nc3ccccc13)/C(=C\c1ccc(O)cc1)CCC2 [1H4] gave an IC50 [1, 9] of 12.5 µM, an IC50 ([1]; Human immunodeficiency virus 1, read-out: Inhibition Tat-induced HIV transcription in CEM cells, IC50) of 10 µM and an IC50 ([3]; Human immunodeficiency virus 1, HEK-293T, read-out: Inhibition Tat-induced HIV transcription in 293T cells, IC50) of 5 µM. For the same compound, the IC50 (HIV-1; Human immunodeficiency virus 1, read-out: 50% Inhibition of HIV-1 replication) was 10 µM, the “effect on PP1 enzymatic activity (Vmax and Km, KT(pT)IRR peptide)” value (PP1α) was “minimal effect; also recorded: no effect” and the “initial velocity V0 of KT(pT)IRR peptide dephosphorylation by PP1α” value (PP1α; 1H4 300 μM, without compound V0=1.4) was 1.3 μM·min^−1. The “PP1α-EGFP co-precipitated with Tat” value [6] was “reduced; also recorded: prevents the interaction”, the “association of Tat with CDK9/cyclin T1” value [6] was “no effect” and the “Tat association with PP1 (microcystin precipitation)” value [7] was “reduced”. For the same compound, the “interaction of PP1 with PNUTS or NIPP1” value [7] was “without any effect; also recorded: no effect”, the “nuclear PP1α-EGFP fluorescence” value ([4]; 293T cells, nuclear fraction, vs untreated or 1G3) was “significant decrease” and the “nuclear localization of PP1α in the presence of Tat” value ([4]; HeLa cells, 10 μM, 18 hours) was “drastically diminished; also recorded: disrupts”. The “cytotoxicity / toxicity in T cells” value (CEM cells [8]) was “not cytotoxic”, the IC50 (CEM cells [2]; [10]) was over 25 µM and the IC50 (CEM cells [2]; [12]) was 30 µM. The “effect on cellular proteome” value (293T cells) was “did not significantly change”.
In the case of CCC(c1nnc(SCC(=O)Nc2ncc(-c3ccc(F)cc3)s2)n1Cc1ccccc1)N(C)C (stereo not drawn) [T5251659], the IC50 [1, 9] is reported as 10 µM and the IC50 (CEM cells [2]; [10]) is reported as 6 µM.
With CCN(CC)S(=O)(=O)c1ccc2c(c1)nc(CCC(=O)N(C)c1ccc(C(F)(F)F)cc1)n2C [T5326526] the IC50 [1, 9] was 15 µM and the IC50 (CEM cells [2]; [10]) was 10 µM.
For CC(OC(=O)c1c2c(nc3ccccc13)/C(=C/c1cccs1)CCC2)C(=O)NC1CC1 (stereo not drawn) [1E7-05], the “inhibition of EBOV replication” value (EBOV-eGFP) was “highly potent”, the “toxicity” value (Vero-E6 cells) was “some toxicity” and the “toxicity (cell monolayer, words)” value (Vero-E6 cells) was “visible toxicity”.
For CCNC(=O)NC(=O)C(C)OC(=O)c1c2c(nc3ccccc13)/C(=C\c1cccs1)CCC2 (stereo not drawn) [1E7-04], the IC50 (HIV-1; [11]) was 3 µM, the “inhibition of EBOV replication” value (EBOV-eGFP) was “highly potent” and the “toxicity” value (Vero-E6 cells) was “some toxicity”. The “toxicity (cell monolayer, words)” value (Vero-E6 cells) was “visible toxicity” and the IC50 (CEM cells [2]; [12]) was 7 µM.
